From PubChem BioAssay (NCI) come the findings set out here.

Test systems include A549 NSCLC; KM12 colon; LOX IMVI melanoma; MDA-MB-435; NCI-H23 lung; OVCAR-4 ovarian; SF-539 CNS; TK-10 renal.
What all share (experiment): NCI tumour cell line growth inhibition, 48 h

Where “and” joins values, the source holds several entries; their conditions need not be identical. Equal entries are not always repeated.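 Five concentrations, 48 hours, 96-well plates. GI50 is the concentration that inhibits growth by half. TGI marks complete inhibition of growth.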 A value given as a limit tells only on which side of the number the result lay.

As to `COc1ccc(OCC(O)CN2CCN(c3ccc(Cl)cc3)CC2)cc1` (configuration not stated), the GI50 with A549 NSCLC, in the test with KM12 colon, in the test with LOX IMVI melanoma, in the test with MDA-MB-435, in the test on NCI-H23 lung and with OVCAR-4 ovarian was > 100 µM each time. Also, in the test on SF-539 CNS, the GI50 is > 100 µM. Further, the TGI with A549 NSCLC, with KM12 colon, with LOX IMVI melanoma, in the test on MDA-MB-435, in the test with NCI-H23 lung and in the test on OVCAR-4 ovarian was > 100 µM each time. In addition, the TGI with SF-539 CNS is > 100 µM.

Take `Cc1ccc(S(=O)(=O)N2CCC(C(=O)O)(c3ccccc3)CC2)cc1`: the TGI in the test on A549 NSCLC, in the test with KM12 colon, in the test on LOX IMVI melanoma, with MDA-MB-435, with NCI-H23 lung and in the test on OVCAR-4 ovarian was > 100 µM throughout. Also, the TGI with SF-539 CNS and with TK-10 renal was > 100 µM throughout.

On to `N/C(=N\C(N)=N\c1nc2ccccc2s1)c1cnccn1`, for which the GI50 with KM12 colon is 3.37 µM; in the test with LOX IMVI melanoma it was 3.47 µM; in the test with NCI-H23 lung, 3 µM; with OVCAR-4 ovarian it was 3.38 µM; in the test with SF-539 CNS, 2.07 µM; in the test on TK-10 renal, 2.53 µM. Moreover, the TGI in the test with KM12 colon was > 100 µM; in the test on LOX IMVI melanoma, > 100 µM; with NCI-H23 lung it was 24.8 µM; in the test with OVCAR-4 ovarian, > 100 µM; in the test with SF-539 CNS, 4.12 µM; in the test with TK-10 renal, 7.96 µM.

Turning to `C#CC#CC#CC#CC#CC#CC#CC#CC[C@@H]1OC[C@@H](COC(=O)O[C@@H](C(=O)O[C@H]2C[C@@]3(O)[C@@H](OC(=O)c4ccccc4)[C@@H]4[C@]5(OC(C)=O)CO[C@@H]5C[C@H](O)[C@@]4(C)C(=O)[C@H](OC(C)=O)C(=C2C)C3(C)C)[C@@H](NC(=O)c2ccccc2)c2ccccc2)O1`, the GI50 with A549 NSCLC was 0.285 µM; in the test with KM12 colon, 0.191 µM; in the test with LOX IMVI melanoma it was 0.0935 µM; in the test with MDA-MB-435, 0.0394 µM; in the test with NCI-H23 lung, 1.04 µM; with OVCAR-4 ovarian, > 8.99 µM. In addition, the results for the GI50 in the test with SF-539 CNS and in the test on TK-10 renal were 0.248 µM and 2.25 µM, respectively. Also, the TGI in the test with A549 NSCLC is > 33.3 µM; in the test with KM12 colon, > 33.3 µM; in the test on LOX IMVI melanoma, > 33.3 µM; in the test with MDA-MB-435 it was 0.111 µM; with NCI-H23 lung it was > 33.3 µM; in the test with OVCAR-4 ovarian, > 33.3 µM. Besides, the TGI in the test with SF-539 CNS is 1.99 µM; with TK-10 renal, > 33.3 µM.

For the compound `COC(=O)c1ccc2[nH]c(O)c(C(=Nc3ccc(N(C)C(=O)CN4CCN(C)CC4)cc3)c3ccccc3)c2c1`, the GI50 in the test with A549 NSCLC is 1.46 µM; in the test with KM12 colon, 0.0353 µM; in the test on LOX IMVI melanoma, 0.552 µM; with MDA-MB-435, 0.89 µM; in the test with NCI-H23 lung, 1.29 µM; in the test on OVCAR-4 ovarian, 0.956 µM. The GI50 with SF-539 CNS is 0.44 µM; in the test on TK-10 renal it was 3.05 µM. Also, the TGI in the test with A549 NSCLC is 5.31 µM; in the test on KM12 colon, 5.52 µM; in the test on LOX IMVI melanoma, 1.92 µM; in the test on MDA-MB-435, 4.02 µM; with NCI-H23 lung, 4.14 µM; in the test on OVCAR-4 ovarian, 2.78 µM. The TGI in the test on SF-539 CNS stood at 1.72 µM; in the test with TK-10 renal it was 17 µM.

For the compound `Cn1ccnc1C(=O)/C=C/c1ccc(C(=O)Nc2c(F)c(F)c(F)c(F)c2F)cc1`, the GI50 is 1.79 µM with A549 NSCLC; 1.14 µM in the test with KM12 colon; 1.5 µM in the test with LOX IMVI melanoma; 2.02 µM in the test with MDA-MB-435; 2.01 µM in the test with NCI-H23 lung; 1.53 µM in the test on OVCAR-4 ovarian. The GI50 with SF-539 CNS is 1.67 µM; in the test on TK-10 renal, 1.76 µM. Also, the TGI in the test on A549 NSCLC worked out at 4.16 µM; in the test with KM12 colon, 2.71 µM; with LOX IMVI melanoma it was 2.87 µM; in the test with MDA-MB-435 it was 4.68 µM; with NCI-H23 lung it was 5.35 µM; with OVCAR-4 ovarian, 4.52 µM. Further, the TGI with SF-539 CNS stood at 3.13 µM; in the test with TK-10 renal, 3.69 µM.

Turning to `CCCCCCCCCCCCOC1C(C(CC(=O)N2CCN(Cc3ccc4c(c3)OCO4)CC2)NS(=O)(=O)c2cc(Cl)cc(Cl)c2)OC2OC(C)(C)OC21` (configuration not stated), the GI50 in the test on A549 NSCLC was 8.48 µM; in the test on KM12 colon, 18.1 µM; in the test with LOX IMVI melanoma it was 16 µM; with MDA-MB-435, 48 µM; in the test with NCI-H23 lung, 17.4 µM; in the test on OVCAR-4 ovarian, 18.1 µM. For the same compound, the GI50 is 43 µM in the test on SF-539 CNS and 58 µM with TK-10 renal. The TGI in the test with A549 NSCLC was > 100 µM; with KM12 colon, > 100 µM; in the test with LOX IMVI melanoma, > 65.9 µM; in the test on MDA-MB-435, > 100 µM; in the test with NCI-H23 lung, > 100 µM; with OVCAR-4 ovarian, > 100 µM. In addition, the TGI with SF-539 CNS and with TK-10 renal was > 100 µM throughout.

`Nc1ncc(C2[C@H](CNC(=O)c3cc(Br)c[nH]3)C(CNC(=O)c3cc(Br)c[nH]3)[C@@H]2c2cnc(N)[nH]2)[nH]1` (some centres not stated): the GI50 in the test on A549 NSCLC, in the test with KM12 colon, in the test on LOX IMVI melanoma, in the test with MDA-MB-435, with NCI-H23 lung and in the test with OVCAR-4 ovarian was > 50 µM in each case. Further, the values for the GI50 in the test with SF-539 CNS and in the test with TK-10 renal were 8.79 µM and > 50 µM, respectively. In addition, the TGI with A549 NSCLC, with KM12 colon, in the test with LOX IMVI melanoma, with MDA-MB-435, in the test on NCI-H23 lung and with OVCAR-4 ovarian was > 50 µM in each case. Also, the TGI with SF-539 CNS and with TK-10 renal was > 50 µM throughout.

Regarding `Cc1ccnc(Nc2ccc([N+](=O)[O-])c(NCCN3CCOCC3)n2)c1`, the GI50 with A549 NSCLC is 0.0141 µM; in the test with KM12 colon, 0.00464 µM; in the test on LOX IMVI melanoma, 0.0052 µM; with MDA-MB-435 it was 0.00233 µM; in the test on NCI-H23 lung, 0.0352 µM and 0.0156 µM; with OVCAR-4 ovarian, 0.0151 µM. Besides, the GI50 in the test with TK-10 renal is 18.5 µM. Further, the TGI in the test with A549 NSCLC is > 100 µM; in the test on LOX IMVI melanoma it was 27.9 µM; in the test with MDA-MB-435, 0.0068 µM; in the test with NCI-H23 lung, 40.8 µM; in the test with TK-10 renal it was 62 µM.

As for `CCN(CC)CCOc1ccc2c(C)c(C(=O)OC)oc2c1C(=O)/C=C/c1ccc(OC)cc1`, the GI50 was 17.6 µM in the test with A549 NSCLC; 1.76 µM in the test on KM12 colon; 1.34 µM in the test with LOX IMVI melanoma; 5.54 µM with MDA-MB-435; 2.93 µM with NCI-H23 lung; 2.43 µM with OVCAR-4 ovarian. Further, the GI50 with SF-539 CNS was 16.3 µM; in the test with TK-10 renal, 1.94 µM. Besides, the TGI with A549 NSCLC amounted to 40.6 µM; in the test on KM12 colon, 3.96 µM; in the test on LOX IMVI melanoma it was 2.81 µM; in the test with MDA-MB-435 it was 15.8 µM; with NCI-H23 lung, 8.34 µM; in the test with OVCAR-4 ovarian it was 6.85 µM. Also, the TGI with SF-539 CNS is 32.2 µM; with TK-10 renal, 5.14 µM.
